Data: patent US20250114335A1, “METHODS AND COMPOSITIONS FOR THE TREATMENT OF EPILEPSY” (ARIZONA BOARD OF REGENTS ON BEHALF OF THE UNIVERSITY OF …, priority 2022, published 2025)

Key:
Assay type in all cases: in vivo, mouse
[1] = tested on: C3H-D/D (Scn8a-N1768D) adult mice; assay: Survival and seizure frequency, adult C3H-D/D mice followed until death; details: for observed standard effect size, Kaplan-Meier survival: treated versus untreated
Description: (§1) Mouse strains: The C57BL/6J-N1768D congenic mouse (B6-D/+) was used for phenotyping, RNAseq, and BBB studies. In addition, a hybrid strain that was produced by backcross breeding to transfer the Scn8a-N1768D allele from the B6 to the C3H/HeJ strain background was used to further assess the effect of CND on survival and seizure frequency. After constructing an F1 by crossing male B6-D/+ heterozygotes to female C3H/HeJ, five rounds of backcrossing (N6) produced a […] and 98.5% C3H/HeJ-N1768D line (C3H-D/+). Sister-brother mating maintained the 98.5% C3H background. […] C3H-D/D mice have a delayed seizure onset (˜40-45 days) and an extended survival (65-70 days) with intermittent bouts of TCs (FIG. 1A).
(§2) Phenotyping: Female and male mice on both the B6 and C3H backgrounds were housed in sex-specific groups of 3-4 per cage in a pathogen-free mouse facility with a 14 h light/10 h dark cycle (lights turned on at 5 am). A 24/7 video monitoring system was utilized to collect seizure data, with infrared illumination to monitor behavior during the dark period. Seizures were counted as individual TCs. Adult mice were followed from the age of 6 weeks, a period of time well before seizure onset, in order to identify the day of seizure onset. A seizure bout was defined as a cluster of seizures on consecutive days, and a gap as a seizure-free period of 3 days or more.
(§3) Preparation of CND suspension for injections and oral dosing: Juvenile B6-D/D and adult B6-D/+ mice were given subcutaneous (s.c.) injections with either CND (2-4 mg/kg/day; doses that fall within the FDA-approved range for CND in both adults and children) or vehicle (VEH) (Sigma-Aldrich) (FIG. 1B). Oral dosing of adults was performed by thoroughly mixing 160 μl of suspension containing 1.28 mg of CND or VEH with 5 g of pure (organic) peanut butter in a petri dish. Mice were given 1 g pellet per mouse each day. Pellets were weighed each day to record the amount consumed, and 24/7 video was used to verify that each mouse was consuming the pellet. An average of 0.79 g (±0.36 g) was consumed by an adult mouse (˜20-25 g), corresponding to 9.1±4.2 mg/kg/day. No correlations were found for the amount of CND consumed and lifetime survival or number of TCs.
Data for the untreated mice were previously reported. Table 1 also provides C3H-D/D summary statistics for female untreated (N=15) and treated (N=15) and male untreated (N=27) and treated (N=16) monitored until the time of death.

[2] = tested on: B6-D/D (Scn8a-N1768D) juvenile mice; assay: Survival and seizure frequency, B6-D/D juvenile mice; details: for Age at Death: daily s.c. injection
Description: as §1, §2, §3
Survival and seizure frequency studies: B6-D/D mice were injected with CND (n=10) or VEH (n=10) at 15 days of age (P15) and followed to monitor TCs by 24/7 video recording until death (FIG. 1B). A separate set of 10 B6-D/D mice was administered a daily s.c. injection of 25 mg/kg/day phenytoin (PHT) suspension or VEH (US Pharmacopeia, Sigma-Aldrich). Oral administration of CND or VEH was initiated at the time of seizure onset (range P75-P85) for adult B6-D/+ females (N=10) and males (N=10) (FIG. 1B). Mice were monitored for seizures by 24/7 video recording until the time of death.

[3] = tested on: hippocampal gene expression; assay: RNAseq and pathway analysis of hippocampal tissue, B6-D/D juveniles
Experimental: (§4) Transcriptome studies: B6-D/D and wild-type (+/+) (n=3) were administered CND or VEH by s.c. injection for a period of 5 days starting at P15 and sacrificed for removal of hippocampal tissue (n=12) (FIG. 1B). Adult B6-D/+ male (n=3) mice were administered CND or VEH pellets as described above at the time of seizure onset and monitored for seizures for an extended period before sacrifice and removal of hippocampal tissue (100-160 d) (i.e., to match the age at which a VEH-treated male B6-D/+ experience ˜20 TCs) (FIG. 1B).
(§5) RNA sequencing: Hippocampal tissues from 21 mice were obtained according to a sampling strategy that compared (1) untreated (VEH only) and treated B6-D/D (n=3) with age-matched B6-+/+ controls (n=3 per group), (2) untreated (VEH only) male B6-D/+ mice that had experienced ˜20 TCs (n=3 per group) with age-matched B6-+/+ controls (n=3 per group), and (3) male B6-D/+ mice that were treated with CND for an extended period (n=3 per group). Brains of treated and untreated mice were dissected to yield tissue samples from the hippocampus. Bulk tissue was stored in RNALater (Qiagen, Valencia, CA) at −80 degrees centigrade. The technique for analyzing hippocampal gene expression was performed. Briefly, RNA was isolated from hippocampal tissue, and initial QC was performed. Libraries were constructed using a stranded mRNA-Seq Kit, and average fragment size was assessed. After concentrations were determined with an adaptor-specific qPCR kit, equimolar samples were pooled and clustered for sequencing on a Novaseq instrument (Illumina). Sample data were demultiplexed, trimmed, and quality filtered, and Fastq files were splice-aligned against the […] reference genome using STAR aligner version 2.5.2b. Gene expression counts were obtained using htseq-count version 0.6.1. Both splice alignment and counting were performed with Ensembl Annotation of the NCBI reference genome, and raw counts were analyzed with edgeR version 3.16.5.
(§6) Data and pathway analysis: Results of statistical summaries were generally expressed as mean±SD. Kaplan-Meier survival curves were used to test for differences in survival. […] A ‘perturbation signature’ approach was used to identify genome-wide differences in transcript abundance between transgenic mice (i.e., D/+, D/D, or +/+) that were untreated (VEH) or treated with CND. Differential expression analysis was performed. Briefly, the exactTest function was utilized in edgeR, and gene expression counts were first normalized using the calcNormFactors function. DEG analysis was performed on treatment versus control groups at two different ages using three biological replicates per group, which has been shown in power analyses to be sufficient to yield a true positive rate greater than 80% under the conditions used here. Multidimensional scaling (MDS) plots were constructed using the ‘plotMDS’ function in edgeR, which plots samples on a 2D scatterplot so that distances on the plot approximate the typical log 2 fold changes between samples. […] Rather than focusing on any single gene, bioinformatic analyses of our RNAseq data identified the most statistically significant biological pathways that were enriched given the set of DEGs in each experiment.

[4] = tested on: hippocampal gene expression; assay: RNAseq and pathway analysis of hippocampal tissue, B6-D/+ adult males
Experimental: as §4, §5, §6

[5] = B6-D/D juveniles, Treated, listed as CDN
[6] = CND-treated B6-D/D, FDR-adjusted P-value <0.05
[7] = treated juveniles, FDR cutoff 0.25

CCOc1nc2cccc(C(=O)O)c2n1Cc1ccc(-c2ccccc2-c2nnn[nH]2)cc1 [CND, candesartan]
gap days ([1]; C3H Males (D/D), Treated): 44.4 days
mean gap length ([1]; C3H Males (D/D), Treated): 4.7 days
increase in survival, treated versus untreated ([1]; C3H-D/D females): 47.5%
reduction in post-onset seizure frequency ([1]; C3H-D/D females): 78.4%
observed standard effect size, Kaplan-Meier survival ([1]; C3H-D/D females): 0.83
increase in survival, treated versus untreated ([1]; C3H-D/D males): 49.2%
reduction in post-onset seizure frequency ([1]; C3H-D/D males): 48.0%
observed standard effect size, Kaplan-Meier survival ([1]; C3H-D/D males): 0.79
days surviving longer than untreated ([2]; B6-D/D): 6.3 days
reduction in seizure frequency ([2]; B6-D/D Juveniles): 45.8%
#TCs ([2]; B6-D/D juveniles, Treated): 119.0 TCs
#TCs/day (Life) ([2]; B6-D/D juveniles, Treated): 0.09 TCs/day
#TCs/day (PostTC) ([2]; B6-D/D juveniles, Treated): 15.4±10.3 TCs/day
#gaps ([2]; B6-D/D juveniles, Treated): 0.9
Age at Onset ([2]; B6-D/D juveniles, Treated): 21.4
Days with TCs ([2]; B6-D/D juveniles, Treated): 7.2 days
gap days ([2]; B6-D/D juveniles, Treated): 4.3 days
mean gap length ([2]; B6-D/D juveniles, Treated): 3.4
Age at Death ([2]; B6-D/D juveniles, Treated): 31.8 ± 2.7 days
Age at Death [2, 5]: 31.8 days
#TCs/day (PostTC) [2, 5]: 15.4 TCs/day
increase in survival of juveniles ([2]; B6-D/D juveniles, treated versus VEH): 27%
observed standard effect size, Kaplan-Meier survival ([2]; B6-D/D juveniles, treated versus untreated (VEH only)): 0.79
TREATED z-score, upstream regulator ACKR2 ([3]; B6-D/D Juveniles): −2.00
TREATED z-score, upstream regulator IL1B ([3]; B6-D/D Juveniles): 1.76
TREATED z-score, upstream regulator PTGER4 ([3]; B6-D/D Juveniles): −2.43
TREATED z-score, upstream regulator SIRT1 ([3]; B6-D/D Juveniles): −2.83
TREATED z-score, upstream regulator TGFB1 ([3]; B6-D/D Juveniles): 0.42
TREATED z-score, upstream regulator TNF ([3]; B6-D/D Juveniles): 1.32
TREATED z-score, upstream regulator lipopolysaccharide ([3]; B6-D/D Juveniles): 3.19
number of down-regulated DEGs [3, 6]: 25
number of up-regulated DEGs [3, 6]: 50
z-score, EIF2 Signaling pathway [3, 7]: 3.2
z-score, Granzyme A Signaling pathway [3, 7]: −3.4
z-score, Mitochondrial Dysfunction pathway [3, 7]: −3.8
z-score, Oxidative Phosphorylation pathway [3, 7]: 5.0
odds ratio, enhancement of ETC gene activation in treated versus untreated ([3]; treated juveniles, FDR≤0.25, 95% CI=3.5-979): 23 fold
TREATED z-score, upstream regulator ERBB2 ([4]; B6-D/+ Adult males): −2.00
TREATED z-score, upstream regulator NUPR1 ([4]; B6-D/+ Adult males): −2.00
TREATED z-score, upstream regulator PTGS2 ([4]; B6-D/+ Adult males): -2.8
number of canonical pathways predicted to be activated ([4]; CND-treated B6-D/+ adult males): 11
number of canonical pathways predicted to be deactivated ([4]; CND-treated B6-D/+ adult males): 3
number of enriched canonical pathways ([4]; CND-treated B6-D/+ adult males): 14
number of DEGs ([4]; CND-treated B6-D/+ males): 86
number of down-regulated DEGs ([4]; CND-treated B6-D/+ males): 10
number of up-regulated DEGs ([4]; CND-treated B6-D/+ males): 76
